Reference: patent US12421242B2, “Substituted tetrahydropyrrolo-pyridinone compounds and their use in treating medical conditions” (Karuna Therapeutics, Inc., priority 2022, dated 2025)

tested on: AMP-evoked hyperlocomotion; assay: Amphetamine-evoked hyperlocomotion in rats (open field); type: in vivo; details: adult male Sprague Dawley rats; 0.5 mg/kg amphetamine s.c.; distance traveled during the last 60 minutes of the 90-minute session
Procedure: Compounds may be tested for ability to impact behavior activity of rats according to the following procedures. Animals: Adult male, Sprague Dawley rats (Envigo, Indianapolis, IN, USA) are housed in a colony maintained at 23° C. with 12 h light/dark cycles (lights on at 0600 hours). All animals weigh 290-330 g at the beginning of the study and are equally divided into 5 groups (n=8 per group) and received one of the treatment conditions listed below. Behavioral Procedures: Studies are conducted in MedAssociates open field chambers (27.3 cm×27.3 cm×20.3 cm, MedAssociates, St. Albans, VT) in which movement is automatically tracked and recorded by 16 beam arrays. The administration pretreatment of the test article is determined to coincide with Tmax at the time of the amphetamine-evoked session with optimal route of administration. All groups are subcutaneously treated with 0.5 mg/kg amphetamine (AMP). The test article is tested in three dose groups with a half-log increase between doses. […] Locomotor data (distance traveled) is recorded as 5-minute bins throughout the 90-minute session. […] Statistical Analysis: Spontaneous locomotion (prior to AMP administration) is calculated as the total distance traveled during the first 30 minutes of the experimental session. AMP-evoked responses are calculated as the total distance traveled during the last 60 minutes of the experimental session which commenced immediately after AMP administration. Locomotor data may be analyzed by a one-way ANOVA. When there is a significant overall ANOVA, post hoc comparisons may be made by Dunnett's test with statistical significance determined as p<0.05. […] Behavioral Procedures: Studies were conducted in MedAssociates open field chambers (27.3 cm×27.3 cm×20.3 cm, MedAssociates, St. Albans, VT) in which movement was automatically tracked and recorded by 16 beam arrays. Administration pretreatment of the test article was determined to coincide with Tmax at the time of the amphetamine-evoked session with optimal route of administration. […]

Question: Which “Dose Amount of Compound at which rats displayed a reduction in amphetamine-evoked hyperlocomotion activity” value does the source give for `Cc1c2c(n(C)c(=O)c1Cl)CN(C(=O)c1cnn(C(F)(F)F)c1)C2` [Compound I-1, 3-chloro-1,4-dimethyl-6-(1-(Trifluoromethyl)-1H-pyrazole-4-carbonyl)-1,5,6,7-tetrahydro-2H-pyrrolo[3,4-b]pyridin-2-one] here?
Answer: The value was 32 mg/kg.

Question: How did the “Dose Amount of Compound at which rats displayed a reduction in amphetamine-evoked hyperlocomotion activity” value turn out when `Cc1c2c(n(C)c(=O)c1Cl)CN(C(=O)c1cnn(C(F)(F)F)c1)[C@@H]2C` [Compound I-76, (R)-3-Chloro-1,4,5-trimethyl-6-(1-(trifluoromethyl)-1H-pyrazole-4-carbonyl)-1,5,6,7-tetrahydro-2H-pyrrolo[3,4-b]pyridin-2-one] was run?
Answer: The value was 3.2 mg/kg.

Question: For `COc1c2c(n(C)c(=O)c1C)CN(C(=O)c1cnn(C(F)(F)F)c1)C2` [Compound I-87], which “Dose Amount of Compound at which rats displayed a reduction in amphetamine-evoked hyperlocomotion activity” value is on record?
Answer: Its value is 32 mg/kg.
